Assay results as given in article doi:10.1101/2021.12.02.470934v1 (biorxiv, 2021).

Target: FGFR1 kinase (FGFR1 kinase enzyme system, Promega V9321) (Homo sapiens, UniProt P11362)
Assay: ADP-Glo luminescence kinase assay
Type: biochemical

Sequence of FGFR1 kinase (FGFR1 kinase enzyme system, Promega V9321) (P11362 398-822 limits assumed): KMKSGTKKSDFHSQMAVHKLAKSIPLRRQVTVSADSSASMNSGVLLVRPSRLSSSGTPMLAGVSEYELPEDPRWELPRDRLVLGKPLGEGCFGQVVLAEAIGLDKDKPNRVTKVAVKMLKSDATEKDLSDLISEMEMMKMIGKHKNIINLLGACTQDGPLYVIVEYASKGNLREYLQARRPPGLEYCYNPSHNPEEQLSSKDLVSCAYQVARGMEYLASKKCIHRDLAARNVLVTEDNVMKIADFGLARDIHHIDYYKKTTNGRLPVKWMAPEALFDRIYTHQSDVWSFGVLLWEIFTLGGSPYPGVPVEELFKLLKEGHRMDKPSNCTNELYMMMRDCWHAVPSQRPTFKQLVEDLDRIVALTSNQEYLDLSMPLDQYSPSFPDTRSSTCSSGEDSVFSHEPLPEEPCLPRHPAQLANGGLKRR

For CCN(CC)CCCC(C)Nc1c2ccc(Cl)cc2nc2ccc(OC)cc12 (stereo not shown) [Quinacrine], the IC50 was 1050 nM.
